This is an account of results in US20070049564A1 (Wyeth, priority 2005, published 2007).

Molecules are shown by their SMILES. ≈ marks a conversion by molar mass, not a printed value. Read-outs that look alike come from different tables or passages of the source.

The test system of test [1] is Staph. The test is described as follows: Range of MIC for Staph. strains, including MRSA. The conditions noted are these: Staphylococcus aureus, MRSA.
The test system of test [2] is E. coli. The test is described as follows: Range of MIC for E. coli strains. The conditions noted are these: Escherichia coli.
Where [3] appears, read: read-out: Range of MIC, Staph (Mouse Serum).
Where [4] appears, read: read-out: Range of MIC, Staph (Water).
Where [5] appears, read: 20 h, read-out: Range of MIC, E. coli (Mouse Serum).
Setting [6] is: read-out: Range of MIC, E. coli (Water).

With `CN(C)c1cc(NC(=O)CN(C(=O)OCOC(=O)COc2ccc(F)cc2)C(C)(C)C)c(O)c2c1C[C@H]1C[C@H]3[C@H](N(C)C)C(O)=C(C(N)=O)C(=O)[C@@]3(O)C(O)=C1C2=O` [Example 64], the MIC (in general, the lowest concentration found to suppress growth) in test [1] (setting [3]) was 0.12 to 0.25 µg/mL (≈ 0.148 to 0.308 µM); in test [1] (setting [4]), 0.12 to 0.5 µg/mL (≈ 0.148 to 0.616 µM); in test [2] (setting [5]), below 0.12 µg/mL; in test [2] (setting [6]), 0.12 to 1 µg/mL (≈ 0.148 to 1.23 µM).
On the same counts, the results for `CN(C)c1cc(NC(=O)CN(C(=O)OCOC(=O)CC2CCCCC2)C(C)(C)C)c(O)c2c1C[C@H]1C[C@H]3[C@H](N(C)C)C(O)=C(C(N)=O)C(=O)[C@@]3(O)C(O)=C1C2=O` [Example 65, ({[(2-{[(5aR,6aS,7S,10aS)-9-(aminocarbonyl)-4,7-bis(dimethylamino)-1,8,10a,11-tetrahydroxy-10,12-dioxo-5,5a,6,6a,7,10,10a,12-octahydrotetracen-2-yl]amino}-2-oxoethyl)(tert-butyl)amino]carbonyl}oxy)methyl cyclohexylacetate] are 0.12 to 0.5 µg/mL (≈ 0.153 to 0.638 µM), 0.12 to 1 µg/mL (≈ 0.153 to 1.28 µM), 0.12 to 0.5 µg/mL (≈ 0.153 to 0.638 µM) and 16 µg/mL (≈ 20.4 µM).
The corresponding values for `Cc1cccc(C)c1C(=O)OCOC(=O)N(CC(=O)Nc1cc(N(C)C)c2c(c1O)C(=O)C1=C(O)[C@]3(O)C(=O)C(C(N)=O)=C(O)[C@@H](N(C)C)[C@@H]3C[C@@H]1C2)C(C)(C)C` [Example 66, ({[(2-{[(5aR,6aS,7S,10aS)-9-(aminocarbonyl)-4,7-bis(dimethylamino)-1,8,10a,11-tetrahydroxy-10,12-dioxo-5,5a,6,6a,7,10,10a,12-octahydrotetracen-2-yl]amino}-2-oxoethyl)(tert-butyl)amino]carbonyl}oxy)methyl 2,6-dimethylbenzoate] are 1 to 16 µg/mL (≈ 1.26 to 20.2 µM), 2 to 16 µg/mL (≈ 2.53 to 20.2 µM), above 128 µg/mL and above 128 µg/mL.
On the same counts, the results for `CN(C)c1cc(NC(=O)CN(C(=O)OCOC(=O)Cc2ccccc2)C(C)(C)C)c(O)c2c1C[C@H]1C[C@H]3[C@H](N(C)C)C(O)=C(C(N)=O)C(=O)[C@@]3(O)C(O)=C1C2=O` [Example 67, ({[(2-{[(5aR,6aS,7S,10aS)-9-(aminocarbonyl)-4,7-bis(dimethylamino)-1,8,10a,11-tetrahydroxy-10,12-dioxo-5,5a,6,6a,7,10,10a,12-octahydrotetracen-2-yl]amino}-2-oxoethyl)(tert-butyl)amino]carbonyl}oxy)methyl phenylacetate] are 0.12 to 0.25 µg/mL (≈ 0.154 to 0.321 µM), 0.12 to 1 µg/mL (≈ 0.154 to 1.29 µM), 0.12 to 0.25 µg/mL (≈ 0.154 to 0.321 µM) and 8 to 32 µg/mL (≈ 10.3 to 41.1 µM).
For `CN(C)c1cc(NC(=O)CN(C(=O)OCOC(=O)C(C)(C)C)C(C)(C)C)c(O)c2c1C[C@H]1C[C@H]3[C@H](N(C)C)C(O)=C(C(N)=O)C(=O)[C@@]3(O)C(O)=C1C2=O` [Example 68, ({[(2-{[(5aR,6aS,7S,10aS)-9-(aminocarbonyl)-4,7-bis(dimethylamino)-1,8,10a,11-tetrahydroxy-10,12-dioxo-5,5a,6,6a,7,10,10a,12-octahydrotetracen-2-yl]amino}-2-oxoethyl)(tert-butyl)amino]carbonyl}oxy)methyl pivalate], the MIC in test [1] (setting [3]) is 0.12 to 0.25 µg/mL (≈ 0.161 to 0.336 µM); in test [1] (setting [4]), 0.12 to 1 µg/mL (≈ 0.161 to 1.34 µM); in test [2] (setting [5]), 0.12 to 1 µg/mL (≈ 0.161 to 1.34 µM); in test [2] (setting [6]) it was 2 to 8 µg/mL (≈ 2.69 to 10.8 µM).
Regarding `CN(C)c1cc(NC(=O)CN(C(=O)OCOC(=O)c2cc3ccccc3o2)C(C)(C)C)c(O)c2c1C[C@H]1C[C@H]3[C@H](N(C)C)C(O)=C(C(N)=O)C(=O)[C@@]3(O)C(O)=C1C2=O` [Example 69, ({[(2-{[(5aR,6aS,7S,10aS)-9-(aminocarbonyl)-4,7-bis(dimethylamino)-1,8,10a,11-tetrahydroxy-10,12-dioxo-5,5a,6,6a,7,10,10a,12-octahydrotetracen-2-yl]amino}-2-oxoethyl)(tert-butyl)amino]carbonyl}oxy)methyl 1-benzofuran-2-carboxylate], the minimal inhibitory concentration (MIC) fell in the range of 0.12 to 0.25 µg/mL (≈ 0.149 to 0.311 µM) in test [1] (setting [3]), 0.12 to 1 µg/mL (≈ 0.149 to 1.24 µM) in test [1] (setting [4]), 0.12 to 0.5 µg/mL (≈ 0.149 to 0.622 µM) in test [2] (setting [5]) and 8 to 64 µg/mL (≈ 9.95 to 79.6 µM) in test [2] (setting [6]).
The corresponding values for `CN(C)c1cc(NC(=O)CN(C(=O)OCOC(=O)c2cccn2C)C(C)(C)C)c(O)c2c1C[C@H]1C[C@H]3[C@H](N(C)C)C(O)=C(C(N)=O)C(=O)[C@@]3(O)C(O)=C1C2=O` [Example 70] are 1 to 4 µg/mL (≈ 1.3 to 5.22 µM), 2 to 4 µg/mL (≈ 2.61 to 5.22 µM), 4 to 8 µg/mL (≈ 5.22 to 10.4 µM) and above 64 µg/mL.
On the same counts, the results for `COc1ccc(C(=O)OCOC(=O)N(CC(=O)Nc2cc(N(C)C)c3c(c2O)C(=O)C2=C(O)[C@]4(O)C(=O)C(C(N)=O)=C(O)[C@@H](N(C)C)[C@@H]4C[C@@H]2C3)C(C)(C)C)cc1` [Example 72, ({[(2-{[(5aR,6aS,7S,10aS)-9-(aminocarbonyl)-4,7-bis(dimethylamino)-1,8,10a,11-tetrahydroxy-10,12-dioxo-5,5a,6,6a,7,10,10a,12-octahydrotetracen-2-yl]amino}-2-oxoethyl)(tert-butyl)amino]carbonyl}oxy)methyl 4-methoxybenzoate] are 0.5 to 1 µg/mL (≈ 0.63 to 1.26 µM), 4 to 8 µg/mL (≈ 5.04 to 10.1 µM), 0.5 to 1 µg/mL (≈ 0.63 to 1.26 µM) and above 64 µg/mL.
On the same counts, the results for `CN(C)c1cc(NC(=O)CN(C(=O)OCOC(=O)c2cc3ccccc3[nH]2)C(C)(C)C)c(O)c2c1C[C@H]1C[C@H]3[C@H](N(C)C)C(O)=C(C(N)=O)C(=O)[C@@]3(O)C(O)=C1C2=O` [Example 73, ({[(2-{[(5aR,6aS,7S,10aS)-9-(aminocarbonyl)-4,7-bis(dimethylamino)-1,8,10a,11-tetrahydroxy-10,12-dioxo-5,5a,6,6a,7,10,10a,12-octahydrotetracen-2-yl]amino}-2-oxoethyl)(tert-butyl)amino]carbonyl}oxy)methyl 1H-indole-2-carboxylate] are 1 to 4 µg/mL (≈ 1.25 to 4.98 µM), 4 to 8 µg/mL (≈ 4.98 to 9.96 µM), 0.5 to 1 µg/mL (≈ 0.623 to 1.25 µM) and above 64 µg/mL.
Regarding `CN(C)c1cc(NC(=O)OCOC(=O)c2cccs2)c(O)c2c1C[C@H]1C[C@H]3[C@H](N(C)C)C(O)=C(C(N)=O)C(=O)[C@@]3(O)C(O)=C1C2=O` [Example 75, [({[(5aR,6aS,7S,10aS)-9-(aminocarbonyl)-4,7-bis(dimethylamino)-1,8,10a,11-tetrahydroxy-10,12-dioxo-5,5a,6,6a,7,10,10a,12-octahydrotetracen-2-yl]amino}carbonyl)oxy]methyl thiophene-2-carboxylate], the MIC in test [1] (setting [3]) was 8 to 16 µg/mL (≈ 12.2 to 24.4 µM); in test [1] (setting [4]), 16 to 32 µg/mL (≈ 24.4 to 48.7 µM); in test [2] (setting [6]), above 64 µg/mL.
The corresponding values for `CN(C)c1cc(NC(=O)OCOC(=O)c2ccc(F)cc2)c(O)c2c1C[C@H]1C[C@H]3[C@H](N(C)C)C(O)=C(C(N)=O)C(=O)[C@@]3(O)C(O)=C1C2=O` [Example 76, [({[(5aR,6aS,7S,10aS)-9-(aminocarbonyl)-4,7-bis(dimethylamino)-1,8,10a, 1-tetrahydroxy-10,12-dioxo-5,5a,6,6a,7,10,10a,12-octahydrotetracen-2-yl]amino}carbonyl)oxy]methyl 4-fluorobenzoate] are 8 to 16 µg/mL (≈ 12 to 23.9 µM), 8 to 32 µg/mL (≈ 12 to 47.9 µM) and above 64 µg/mL.
As for `Cc1cc(C)cc(C(=O)OCOC(=O)Nc2cc(N(C)C)c3c(c2O)C(=O)C2=C(O)[C@]4(O)C(=O)C(C(N)=O)=C(O)[C@@H](N(C)C)[C@@H]4C[C@@H]2C3)c1` [Example 77, [({[(5aR,6aS,7S,10aS)-9-(aminocarbonyl)-4,7-bis(dimethylamino)-1,8,10a,11-tetrahydroxy-10,12-dioxo-5,5a,6,6a,7,10,10a,12-octahydrotetracen-2-yl]amino}carbonyl)oxy]methyl 3,5-dimethylbenzoate], the MIC in test [1] (setting [3]) was 2 to 4 µg/mL (≈ 2.95 to 5.89 µM); in test [1] (setting [4]), 4 to 32 µg/mL (≈ 5.89 to 47.1 µM); in test [2] (setting [6]) it was above 64 µg/mL.
On to `CN(C)c1cc(NC(=O)OCOC(=O)C(C)(C)C)c(O)c2c1C[C@H]1C[C@H]3[C@H](N(C)C)C(O)=C(C(N)=O)C(=O)[C@@]3(O)C(O)=C1C2=O` [Example 78, [({[(5aR,6aS,7S,10aS)-9-(aminocarbonyl)-4,7-bis(dimethylamino)-1,8,10a,11-tetrahydroxy-10,12-dioxo-5,5a,6,6a,7,10,10a,12-octahydrotetracen-2-yl]amino}carbonyl)oxy]methyl pivalate], for which the MIC in test [1] (setting [3]) is 8 µg/mL (≈ 12.7 µM); in test [1] (setting [4]), 8 to 32 µg/mL (≈ 12.7 to 50.7 µM); in test [2] (setting [5]), 16 to 64 µg/mL (≈ 25.4 to 101 µM); in test [2] (setting [6]), above 64 µg/mL.
In the case of `CN(C)c1cc(NC(=O)OCOC(=O)CC(C)(C)C)c(O)c2c1C[C@H]1C[C@H]3[C@H](N(C)C)C(O)=C(C(N)=O)C(=O)[C@@]3(O)C(O)=C1C2=O` [Example 79, [({[(5aR,6aS,7S,10aS)-9-(aminocarbonyl)-4,7-bis(dimethylamino)-1,8,10a,11-tetrahydroxy-10,12-dioxo-5,5a,6,6a,7,10,10a,12-octahydrotetracen-2-yl]amino}carbonyl)oxy]methyl 3,3-dimethylbutanoate], the MIC in test [1] (setting [3]) was 4 µg/mL (≈ 6.2 µM); in test [1] (setting [4]), 4 to 8 µg/mL (≈ 6.2 to 12.4 µM); in test [2] (setting [6]), above 64 µg/mL.
In the case of `CCC(C)(C)C(=O)OCOC(=O)Nc1cc(N(C)C)c2c(c1O)C(=O)C1=C(O)[C@]3(O)C(=O)C(C(N)=O)=C(O)[C@@H](N(C)C)[C@@H]3C[C@@H]1C2` [Example 80, [({[(5aR,6aS,7S,10aS)-9-(aminocarbonyl)-4,7-bis(dimethylamino)-1,8,10a,11-tetrahydroxy-10,12-dioxo-5,5a,6,6a,7,10,10a,12-octahydrotetracen-2-yl]amino}carbonyl)oxy]methyl 2,2-dimethylbutanoate], the MIC was 4 to 8 µg/mL (≈ 6.2 to 12.4 µM) in test [1] (setting [3]) and 4 to 16 µg/mL (≈ 6.2 to 24.8 µM) in test [1] (setting [4]).
For the molecule `CN(C)c1cc(NC(=O)CN(C(=O)OCOC(=O)c2cn(C)c3ccccc23)C(C)(C)C)c(O)c2c1C[C@H]1C[C@H]3[C@H](N(C)C)C(O)=C(C(N)=O)C(=O)[C@@]3(O)C(O)=C1C2=O` [Example 83, ({[(2-{[(5aR,6aS,7S,10aS)-9-(aminocarbonyl)-4,7-bis(dimethylamino)-1,8,10a,11-tetrahydroxy-10,12-dioxo-5,5a,6,6a,7,10,10a,12-octahydrotetracen-2-yl]amino}-2-oxoethyl)(tert-butyl)amino]carbonyl}oxy)methyl 1-methyl-1H-indole-3-carboxylate], the MIC is 8 to 32 µg/mL (≈ 9.79 to 39.2 µM) in test [1] (setting [3]), 2 to 16 µg/mL (≈ 2.45 to 19.6 µM) in test [1] (setting [4]) and above 64 µg/mL in test [2] (setting [6]).
